{"source": "patent US9132141B2", "about": "(priority 2012, dated 2015)", "key": {"[1]": {"tested_on": "PR8", "experiment": "Oxidized phospholipids in lungs of PR8-infected mice (MALDI-IMS)", "type": "in vivo, mouse", "settings": "PR8-infected mice with or without treatment", "source_text": "To assess the effect of eritoran on production of oxidized phospholipids during infection, MALDI-IMS was used to identify alterations in the lipid composition of mouse lungs after PR8, with or without eritoran treatment. […] (FIG. 10a). Results are representative of 4 replicate experiments. The structures of abundant phosphatidylcholine (PC) and predicted oxidized phosphatidylcholine (OxPC) molecules and molecular weights: 1-palmitoyl-2-linoleoyl PC (PLPC) m/z 757.6, 1-palmitoyl-2-arachadonyl PC (PAPC) m/z 782.1, and predicted structures of oxidized PC molecules and molecular weight, 1-palmitoyl-2-(9-oxo)nonanoyl PC (PONPC) m/z 649.4, (PEIPC) 1-palmitoyl-2-(5,6-epoxyisoprostance E2 oyl) PC m/z 828.1 are shown. (FIG. 10b)."}, "[2]": {"tested_on": "PR8", "experiment": "Lung viral titers in PR8-infected mice", "type": "in vivo", "settings": "~7500 TCID50 PR8, 200 μg/mouse i.v. starting on day 2"}, "[3]": {"tested_on": "PR8", "experiment": "Influenza-induced lung pathology in PR8-infected mice (H&E histology)", "type": "in vivo", "settings": "~7500 TCID50 PR8; 200 μg/mouse i.v. starting on day 2; day 7 post-infection", "procedure": "Mice were infected i.n. with 50 μl of PR8 (˜7500 TCID50/mouse). Mice were then injected i.v. with 100 μl of eritoran (200 μg/mouse) starting on day 2 post-infection. Mice were then sacrificed on day 7 post-infection (day […] post-eritoran treatment) and lungs harvested for lung pathology (4 mice/treatment group). Murine lungs were inflated and perfused and fixed with 4% PFA. Fixed sections (8 μm) of paraffin-embedded lungs were stained with hematoxylin and eosin (H&E). Slides were randomized, read blindly, and examined for tissue damage, necrosis, apoptosis, and proinflammatory cellular infiltration. […] Pulse oximetry measurements were performed to confirm these observations."}, "[4]": {"tested_on": "PR8", "experiment": "Survival of PR8-infected IFNβ−/− mice", "type": "in vivo", "settings": "~7500 TCID50 PR8; treated 2 days post-infection for 5 successive days", "source_text": "Wild-type and IFNβ^−/− mice were infected with ˜7500 TCID50 PR8 and were left either untreated (circles) or treated with eritoran 2 days post-infection, for 5 successive days (squares). (FIG. 11). Data represent the combined results of 2 separate experiments (6 mice per treatment per experiment; WT: untreated vs. eritoran treatment (p<0.0013); IFNβ^−/−: untreated v. eritoran treatment (p=ns)."}, "[5]": {"tested_on": "influenza", "experiment": "Survival of influenza-infected TLR2−/− and CD14−/− mice", "type": "in vivo", "settings": "treated 2 days post-infection for 5 successive days", "source_text": "Normal mice (WT), TLR4^−/−, TLR2^−/−, and CD14^−/− were infected with influenza and then were untreated (closed circles) or treated with eritoran (open circles) 2 days post-infection, for 5 successive days. (FIG. 13a). […] WT data were combined from 5 separate experiments (5-6 mice per treatment per experiment), TLR4^−/− data were combined from 3 separate experiments (5-6 mice per treatment per experiment), CD14^−/− data were combined from 2 separate experiments (4-5 mice per treatment per experiment). WT: untreated vs eritoran (p, 0.0001); TLR4^−/−: untreated vs. eritoran (p=ns); CD14^−/−: untreated vs. eritoran (p=ns); TLR2^−/−: untreated vs. eritoran (p=ns)."}, "[6]": {"tested_on": "PR8", "experiment": "Influenza-induced cytokine and interferon mRNA in lungs of PR8-infected mice (real-time PCR)", "type": "in vivo", "settings": "200 μg/mouse i.v. starting on day 2"}, "[7]": {"tested_on": "PR8", "experiment": "Influenza-induced serum liver enzyme levels (ALT, AST) in PR8-infected mice", "type": "in vivo, C57BL/6J WT mice", "settings": "200 μg/mouse i.v. starting on day 2; serum day 7", "procedure": "Mice infected i.n. with 50 μl of PR8 (˜7500 TCID50/mouse). Mice injected i.v. with 100 μl of eritoran (200 μg/mouse) starting on day 2 post-infection. Serum was collected on day 7 from C57BL/6J WT mice that were either mock-infected with saline or infected with PR8 and were either left untreated or were treated with eritoran starting on day 2 post-infection. Alanine aminotransaminase (ALT) and aspartate aminotransaminase (AST) were measured (Siemens Healthcare Diagnostics, Ltd.). […] Data represent 2 separate experiments with 4 mice per treatment per experiment."}, "[8]": {"molecular_target": "T1, TLR4 (Mus musculus, UniProt Q9JHF9+Q9QUK6)", "T1 construct": "endogenous in cells; host or cells: peritoneal macrophages from wild-type C57BL/6J mice", "T1 sequence (Q9QUK6 26-835)": "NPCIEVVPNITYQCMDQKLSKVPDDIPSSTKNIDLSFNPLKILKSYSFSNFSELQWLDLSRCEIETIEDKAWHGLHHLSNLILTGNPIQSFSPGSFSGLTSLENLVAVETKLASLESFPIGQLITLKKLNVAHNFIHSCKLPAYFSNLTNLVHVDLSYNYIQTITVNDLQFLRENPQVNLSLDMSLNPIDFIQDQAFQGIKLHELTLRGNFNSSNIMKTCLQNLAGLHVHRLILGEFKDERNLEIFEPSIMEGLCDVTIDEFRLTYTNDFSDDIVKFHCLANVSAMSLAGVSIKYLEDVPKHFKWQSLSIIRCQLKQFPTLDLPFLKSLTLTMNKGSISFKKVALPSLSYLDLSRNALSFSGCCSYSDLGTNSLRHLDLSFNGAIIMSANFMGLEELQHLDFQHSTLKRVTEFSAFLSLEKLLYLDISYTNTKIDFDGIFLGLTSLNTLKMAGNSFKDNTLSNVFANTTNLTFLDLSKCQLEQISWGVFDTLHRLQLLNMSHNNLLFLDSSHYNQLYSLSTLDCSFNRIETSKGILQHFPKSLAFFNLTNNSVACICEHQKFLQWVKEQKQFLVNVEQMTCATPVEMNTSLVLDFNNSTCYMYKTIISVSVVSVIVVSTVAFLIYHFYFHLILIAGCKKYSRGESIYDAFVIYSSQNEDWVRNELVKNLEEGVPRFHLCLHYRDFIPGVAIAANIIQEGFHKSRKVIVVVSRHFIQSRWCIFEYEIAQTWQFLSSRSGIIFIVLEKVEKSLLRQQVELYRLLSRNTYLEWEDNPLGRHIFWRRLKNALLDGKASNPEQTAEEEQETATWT", "T1 sequence (Q9JHF9 19-160)": "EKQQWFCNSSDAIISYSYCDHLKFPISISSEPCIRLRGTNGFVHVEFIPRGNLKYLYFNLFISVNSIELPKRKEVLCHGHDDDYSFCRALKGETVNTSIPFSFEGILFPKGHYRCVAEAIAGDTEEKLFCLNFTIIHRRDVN", "experiment": "OxPAPC-induced IL-6 gene expression in peritoneal macrophages", "type": "cell-based", "settings": "pretreatment 10 ng/mL for 1 hour, OxPAPC 20 μg/mL", "procedure": "Wild-type C57BL/6J, TLR4^−/−, and TLR2^−/− peritoneal macrophages were pretreated with eritoran (10 ng/mL) for 1 hour and then treated with medium alone, LPS (20 ng/mL), P3C (300 ng/mL), or OxPAPC (20 μg/mL) and RNA expression was measured. Commercially obtained OxPAPC activated IL-6 gene expression in WT and TLR2^−/− mouse peritoneal macrophages, but not in cells from TLR4^−/− mice (FIG. 9). […] Data are means+/−s.e.m. from 1 experiment with samples done in triplicate (*p<0.001, #p<0.05)."}, "[9]": {"tested_on": "A/California/07/2009, H1N1", "experiment": "Direct antiviral effect: virus titration in MDCK cells"}}}
{"smiles": "CCCCCC/C=C\\CCCCCCCCCC(=O)N[C@H]1[C@H](OC[C@H]2O[C@H](OP(=O)(O)O)[C@H](NC(=O)CC(=O)CCCCCCCCCCC)[C@@H](OCCCCCCCCCC)[C@@H]2O)O[C@H](COC)[C@@H](OP(=O)(O)O)[C@@H]1OCC[C@@H](CCCCCCC)OC", "note": "[eritoran, α-D-Glucopyranose, 3-O-decyl-2-deoxy-6-O-[2-deoxy-3-O-[(3R)-3-methoxydecyl)-6-O-methyl-2-[[(-11Z)-1-oxo-11-octadecenyl)amino]-4-O-phosphono-β-D-glucopyranosyl]-2-[(1,3-dioxotetradecyl)amino]-1-(dihydrogen phosphate)]", "values": [{"measurement": "oxidation products of phospholipids in lung", "setting": "[1]", "result": "detected in greater abundance and intensity in PR8-infected versus mice that were treated with eritoran"}, {"measurement": "lung viral titers on day 7", "setting": "[2]; day 7 post-infection", "result": "further decreased"}, {"measurement": "lung viral titers", "setting": "[2]; lungs harvested days 2, 4, 6", "result": "statistically significant decrease in lung viral titers"}, {"measurement": "lung sections nearly normal", "setting": "[3]", "result": "~80 % of lung sections"}, {"measurement": "lung sections showing inflammatory infiltrates", "setting": "[3]", "result": "~20 % of lung sections"}, {"measurement": "protection (survival) in IFNβ−/− mice", "setting": "[4]", "result": "does not induce protection"}, {"measurement": "protection (survival) in TLR2−/− or CD14−/− mice", "setting": "[5]", "result": "ineffective at inducing protection"}, {"measurement": "cytokine gene expression in lung", "setting": "[6]; days 2, 4, 6 post-infection", "result": "significantly reduced cytokine gene expression at each time point"}, {"measurement": "interferon production (mRNA) in lung", "setting": "[6]; depends on interferon species", "result": "variable levels of interferon production compared to control mice"}, {"measurement": "liver enzyme levels (ALT, AST) in serum", "setting": "[7]", "result": "lower levels of liver enzymes post-infection"}, {"measurement": "TLR4-dependent cell activation by OxPAPC (IL-6 gene expression)", "setting": "[8]", "result": "substantially inhibited"}, {"measurement": "Titer", "setting": "[9]; Experiment 1, 10 ng/mL applied 1 hour prior to virus", "result": "1.0 × 10^6 TCID50/ml"}, {"measurement": "Titer", "setting": "[9]; Experiment 1, 10 ng/mL applied at the same time as virus", "result": "3.1 × 10^6 TCID50/ml"}, {"measurement": "Titer", "setting": "[9]; Experiment 2, 10 ng/mL applied 1 hour prior to virus", "result": "3.4 × 10^5 TCID50/ml"}, {"measurement": "Titer", "setting": "[9]; Experiment 2, 10 ng/mL applied at the same time as virus", "result": "6.3 × 10^6 TCID50/ml"}]}
